Test results reported in patent US9458092B2, “α-Substituted glycinamide derivative” (KISSEI PHARMACEUTICAL CO., LTD., priority 2013, dated 2016).

Experiments:
TRPM8 [1] = target: T1, TRPM8 (Rattus norvegicus, UniProt Q8R455); conditions: cited from earlier work
[2] = system: overactive bladder induced by acetic acid; assay: Confirmation test of elongation action of micturition interval of overactive bladder induced by acetic acid; format: in vivo, female SD rats; conditions: Rattus norvegicus, iv, interval before administration = 100%
Method: Urethane (sigma) was dissolved into pure water by 25% w/v, and female SD rats were anesthetized with 1.25 g/kg urethane by subcutaneous administration. Cannulae were placed in femoral vein and bladder, and the bladder cannula was connected to both a syringe pump and a pressure transducer. Detrusor overactivity was induced by intravesical infusion of 0.25% acetic acid in saline at a rate of 3.6 mL/h, and intravesical pressure was monitored via pressure transducer concurrently. Test compounds were dissolved into a mixture of dimethylacetamide and saline (20:80), and were administered via the femoral vein. When an average of the three micturition interval before administration was taken as 100%, an average of the three micturition interval after administration was calculated as Elongation of micturition interval (%) Dose and results are shown in tables 46 and 47.

TRPM8 [3] = target: T1, TRPM8; assay: Confirmation test of inhibitory effects on icilin-induced wet-dog shakes; format: in vivo, female SD rats; design: test compounds were orally administered to female SD rats; from tissue; host or cells: whole animal (female SD rats), endogenous channel; conditions: icilin 1 mg/kg i.p. after 1 hour, shakes counted for 5 minutes
Method: Test compounds were dissolved in dimethylacetamide (wako), and 0.5% methylcellulose solution (wako) was added to make the solution or suspension containing 5% of dimethylacetamide. At a dose of 3 or 10 mg/kg/5 mL of test compounds were orally administered to female SD rats. After 1 hour, wet-dog shakes were induced by the intrapenitoneal injection of icilin (1 mg/kg) which was dissolved in polyethylene glycol 400 (wako). From 5 minutes after the administration of icilin, wet-dog shakes were counted for 5 minutes. For control example, vehicle (a mixture of dimethylacetamide (wako): 0.5% methylcellulose (wako)=5:95) was administrated similarly, and the number of wet-dog shakes was counted in the same manner. A percent inhibition of wet-dog shakes by test compound was calculated from the following formula: [1-(test compound wet-dog shake count/vehicle wet-dog shake count)]×100.

[4] = 1 mg/kg/2 ml via the femoral vein
[5] = 1 mg/kg/ml via the femoral vein

T1 sequence (Q8R455 whole entry): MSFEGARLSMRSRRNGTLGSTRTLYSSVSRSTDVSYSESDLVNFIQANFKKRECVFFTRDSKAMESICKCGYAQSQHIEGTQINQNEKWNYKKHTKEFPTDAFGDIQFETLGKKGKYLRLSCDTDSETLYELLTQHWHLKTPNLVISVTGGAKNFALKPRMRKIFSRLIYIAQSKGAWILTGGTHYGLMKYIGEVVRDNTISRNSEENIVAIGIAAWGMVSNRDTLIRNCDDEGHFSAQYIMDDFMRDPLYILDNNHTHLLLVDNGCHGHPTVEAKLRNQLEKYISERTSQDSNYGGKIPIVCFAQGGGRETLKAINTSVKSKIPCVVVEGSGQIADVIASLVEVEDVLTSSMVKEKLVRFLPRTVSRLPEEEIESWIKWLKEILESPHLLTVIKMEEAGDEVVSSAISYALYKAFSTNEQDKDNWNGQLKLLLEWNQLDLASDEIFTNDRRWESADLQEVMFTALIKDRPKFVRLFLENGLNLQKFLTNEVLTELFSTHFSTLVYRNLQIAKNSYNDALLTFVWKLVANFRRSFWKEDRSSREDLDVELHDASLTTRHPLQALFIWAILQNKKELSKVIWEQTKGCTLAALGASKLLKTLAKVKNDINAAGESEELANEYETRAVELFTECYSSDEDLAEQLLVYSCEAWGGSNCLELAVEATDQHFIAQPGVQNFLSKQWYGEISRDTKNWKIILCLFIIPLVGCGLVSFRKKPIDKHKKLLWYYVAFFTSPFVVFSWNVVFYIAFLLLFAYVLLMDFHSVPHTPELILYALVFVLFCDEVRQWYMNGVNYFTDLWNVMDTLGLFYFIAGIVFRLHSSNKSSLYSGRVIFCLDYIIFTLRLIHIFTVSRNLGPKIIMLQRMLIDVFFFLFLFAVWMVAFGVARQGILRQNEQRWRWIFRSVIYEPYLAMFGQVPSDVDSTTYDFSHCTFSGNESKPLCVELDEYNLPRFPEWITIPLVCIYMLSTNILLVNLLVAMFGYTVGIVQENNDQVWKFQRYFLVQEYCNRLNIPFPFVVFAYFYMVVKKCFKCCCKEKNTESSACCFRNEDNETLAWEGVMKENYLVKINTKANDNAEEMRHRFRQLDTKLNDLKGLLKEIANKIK

SMILES | response vs control in vivo at 1 mg/kg [2, 4] [%] | % inhibition of Wet-Dog Shake (TRPM8 [3]; dose 10 mg/kg orally) [%] | % inhibition of Wet-Dog Shake (TRPM8 [3]; dose 3 mg/kg orally) [%] | response vs control in vivo at 1 mg/kg [2, 5] [%] | further results
Cc1cccc(COc2ccccc2C(=O)N(CCCN)Cc2cccs2)c1.Cl [AMTB, N-(3-aminopropyl)-2-{[(3-methylphenyl)methyl]oxy}-N-(2-thienylmethyl)benzamide hydrochloride] | – | – | – | – | frequency of rhythmic bladder contractions (TRPM8 [1]; anesthetized rats): suppresses; nociceptive reflex responses to bladder distension (TRPM8 [1]; anesthetized rats): suppresses; average blood pressure (TRPM8 [1]; rat, in vivo): decrease
NC(=O)[C@@H](c1ccccc1)N(C(=O)c1ccccc1)[C@@H]1CCc2ccc(C3CC3)cc21 [Example 2-5LP, N-[(R)-carbamoylphenylmethyl]-N-[(R)-6-cyclopropylindan-1-yl]benzamide] | 177 | 89 | – | – | –
NC(=O)[C@@H](c1ccccc1)N(C(=O)c1ccccc1)[C@@H]1CCc2c(F)cc(Cl)cc21 [Example 2-6LP, N-[(R)-carbamoylphenylmethyl]-N-[(R)-6-chloro-4-fluoroindan-1-yl]benzamide] | – | – | 69 | – | response vs control in vivo at 0.3 mg/kg ([2]; 0.3 mg/kg/ml via the femoral vein): 184%
NC(=O)[C@@H](c1ccccc1)N(C(=O)c1cccnc1)[C@@H]1CCc2c(F)cc(Cl)cc21 [Example 2-23LP, N-[(R)-carbamoylphenylmethyl]-N-[(R)-6-chloro-4-fluoroindan-1-yl]nicotinamide] | – | – | 56 | 205 | –
NC(=O)[C@@H](c1ccccc1)N(C(=O)c1cccnc1)[C@@H]1CCc2ccc(Cl)cc21 [Example 2-31LP, N-[(R)-carbamoylphenylmethyl]-N-[(R)-6-chloroindan-1-yl]nicotinamide] | – | 87 | – | 176 | –
COc1ncccc1C(=O)N([C@@H]1CCc2ccc(Cl)cc21)[C@@H](C(N)=O)c1ccccc1 [Example 2-46LP, N-[(R)-carbamoylphenylmethyl]-N-[(R)-6-chloroindan-1-yl]-2-methoxynicotinamide] | – | – | 79 | 186 | –
NC(=O)[C@@H](c1cccnc1)N(C(=O)c1ccccc1)[C@@H]1CCc2c(F)cc(Cl)cc21 [Example 2-66LP, N-[(R)-carbamoylpyridin-3-ylmethyl]-N-[(R)-6-chloro-4-fluoroindan-1-yl]benzamide] | – | 100 | – | 175 | –
NC(=O)[C@@H](c1ccccc1)N(C(=O)c1cncc(F)c1)[C@@H]1CCc2c(F)cc(Cl)cc21 [Example 2-86LP, N-[(R)-carbamoylphenylmethyl]-N-[(R)-6-chloro-4-fluoroindan-1-yl]-5-fluoronicotinamide] | 145 | 73 | – | – | –
COc1ccccc1C(=O)N([C@@H]1CCc2c(F)cc(Cl)cc21)[C@@H](C(N)=O)c1ccccc1 [Example 2-89LP, N-[(R)-carbamoylphenylmethyl]-N-[(R)-6-chloro-4-fluoroindan-1-yl]-2-methoxybenzamide] | 196 | – | 100 | – | –
NC(=O)[C@@H](c1ccccc1)N(C(=O)c1cccc2c1OCC2)[C@@H]1CCc2c(F)cc(Cl)cc21 [Example 2-111LP, N-[(R)-carbamoylphenylmethyl]-N-[(R)-6-chloro-4-fluoroindan-1-yl]-2,3-dihydrobenzofuran-7-carboxamide] | – | – | 91 | – | response vs control in vivo at 0.3 mg/kg ([2]; 0.3 mg/kg/2 ml via the femoral vein): 135%
Cc1ncccc1C(=O)N([C@@H]1CCc2c(F)cc(F)cc21)[C@@H](C(N)=O)c1ccccc1 [Example 2-131LP, N-[(R)-carbamoylphenylmethyl]-N-[(R)-4,6-difluoroindan-1-yl]-2-methylnicotinamide] | – | – | 100 | 162 | –
Cc1scnc1C(=O)N([C@@H]1CCc2c(F)cc(Cl)cc21)[C@@H](C(N)=O)c1ccccc1 [Example 2-147LP, N-[(R)-carbamoylphenylmethyl]-N-[(R)-6-chloro-4-fluoroindan-1-yl]-5-methylthiazole-4-carboxamide] | 146 | – | 91 | – | –
NC(=O)[C@@H](c1ccccc1)N(C(=O)c1ccccc1)[C@@H]1CCc2c(F)cc(F)cc21 [Example 2-221LP, N-[(R)-carbamoylphenylmethyl]-N-[(R)-4,6-difluoroindan-1-yl]benzamide] | 154 | 100 | – | – | –
NC(=O)[C@@H](c1ccccc1)N(C(=O)c1ccccc1N)[C@@H]1CCc2c(F)cc(F)cc21 [Example 6-1, 2-amino-N-[(R)-carbamoylphenylmethyl]-N-[(R)-4,6-difluoroindan-1-yl]benzamide] | 194 | 89 | – | – | –
COc1ncccc1C(=O)N([C@@H]1CCc2c(F)cc(Cl)cc21)[C@@H](C(N)=O)c1ccccc1 [Example 11, N-[(R)-carbamoylphenylmethyl]-N-[(R)-6-chloro-4-fluoroindan-1-yl]-2-methoxynicotinamide] | – | – | 100 | 162 | –
Cc1ncccc1C(=O)N([C@@H]1CCc2c(F)cc(Cl)cc21)[C@@H](C(N)=O)c1cccnc1 [Example 12, N-[(R)-carbamoylpyridin-3-ylmethyl]-N-[(R)-6-chloro-4-fluoroindan-1-yl]-2-methylnicotinamide] | – | 93 | – | 142 | –
NC(=O)[C@@H](c1ccccc1)N(C(=O)c1cccnc1N)[C@@H]1CCc2c(F)cc(Cl)cc21 [Example 13, 2-amino-N-[(R)-carbamoylphenylmethyl]-N-[(R)-6-chloro-4-fluoroindan-1-yl]nicotinamide] | – | – | 93 | 184 | –
Cc1ncccc1C(=O)N([C@@H]1CCc2c(F)cc(Cl)cc21)[C@@H](C(N)=O)c1ccccc1 [Example 14LP, N-[(R)-carbamoylphenylmethyl]-N-[(R)-6-chloro-4-fluoroindan-1-yl]-2-methylnicotinamide] | – | – | 100 | 181 | –
Cc1ncsc1C(=O)N([C@@H]1CCc2c(F)cc(Cl)cc21)[C@@H](C(N)=O)c1ccccc1 [Example 15LP, N-[(R)-carbamoylphenylmethyl]-N-[(R)-6-chloro-4-fluoroindan-1-yl]-4-methylthiazole-5-carboxamide] | – | – | 100 | 188 | –
